Data reported in patent US11951204B2, “Cell-penetrating peptides and composition including the same” (S-SKIN. CO., LTD., priority 2022, dated 2024).
Ends that are not written are not given here. Peptide text beside a SMILES is read from it. * marks the point of attachment. FITC = O=C1OC2(c3ccc(O)cc3Oc3cc(O)ccc32)c2ccc(NC(=S)*)cc21; Palmitoyl = CCCCCCCCCCCCCCCC(=O)*; Ahx = NCCCCCC(=O)O

Tests used:
Type in all cases: cell-based, human
HaCaT cells [1] = test: Cell penetration rate by flow cytometry; conditions: 10 μM, 37° C., 1 hour
Procedure: (§1) HaCaT cells were inoculated at a concentration of 3×10^5 cells/well into a 6-well plate and incubated for 24 hours. Then, the cell culture medium was removed, followed by washing twice with HBSS, and replaced with an Opti-MEM medium. The cells were treated with 10 μM FITC-TAT, FITC-Spep001, FITC-Spep002 or FITC-Spep003 and incubated at 37° C. with 5% CO2 for 1 hour. […] Finally, the cells were treated with 1 mg/mL trypsin and thus separated into single cells, followed by centrifugation at 1,000 rpm for 5 minutes. The FITC fluorescence intensities of cell-penetrating peptides per living 10,000 cells were measured by performing flow cytometry (Navios Flow Cytometer by Beckman Coulter Life Sciences), and the result thereof is shown in FIG. 5A(i) to FIG. 5A(v) and FIG. 5B.

HDF-N cells = tested on: HDF-N cells
Procedure: (§2) Cytotoxicity of the cell-penetrating multifunctional peptide according to Example 1 was checked. Specifically, HaCaT cells (human keratinocytes) were inoculated at a concentration of 1.5×10^4 cells/well into a 96-well plate and incubated for 24 hours. Then, the medium was removed, followed by washing once with PBS, and replaced with a serum-free medium. The cells were treated with Spep001 (SEQ ID NO: 1), Spep002 (SEQ ID NO: 8) or Spep003 (SEQ ID NO: 9) at a concentration of 0 μM, 25 μM, 50 μM, 100 μM or 200 μM and then further incubated for 24 hours. Herein, culture conditions were maintained at 37° C. with 5% CO2.
(§3) Also, at the time of completion of incubation, a WST-1 assay (Water Soluble Tetrazolium salt-1, EZ-assay kit, DoGenBio) was conducted. Specifically, 100 μL of a WST-1 solution was added to the well of cells after the completion of further incubation and then incubated for 3 hours. Thereafter, the absorbance at 450 nm was measured using a microplate spectrophotometer (Multiskan™ GO, thermo), and the result thereof is shown in FIG. 2B and Table 2 below.
HDF-N cells were treated with 12.5 μM KTTKS (SEQ ID NO: 5), Spep001-KTTKS (SEQ ID NO: 6) and pal-KTTKS which are peptides fabricated in Example 9. The appearance and proliferation rate of the cells were measured as in Example 3, and the results thereof are shown in FIG. 9A(i) to FIG. 9A(iv), FIG. 9B and Table 7 below.

[2] = Cytotoxicity assay (WST-1, microscopy) in HaCaT cells; conditions: human, HaCaT cells (keratinocytes), HaCaT, 24 hours, read-out: survival rate (WST-1)
Procedure: as §2
At the time of completion of further incubation, the appearance of the cells were imaged by a microscope, and the result thereof is shown in FIG. 2A(i) to FIG. 2A(xx).
as §3
Herein, all the result values are expressed in mean±standard deviation. The analysis result of each item was statistically analyzed by a 2-way analysis of variance (ANOVA) test. A Bonferroni post-test was conducted at a P value of *p<0.05 and **p<0.01 only when the significance was determined by ANOVA test. GraphPad prism 5.0.1 (GraphPad Software Inc., San Diego, CA, USA) was used as a statistical software program.

[3] = Cytotoxicity assay (WST-1, microscopy) in HDF-N cells; conditions: human, HDF-N cells (dermal fibroblasts, neonatal), HDF-N, 24 hours, read-out: survival rate (WST-1)
Procedure: as §2, §3
The appearance of HDF-N (human dermal fibroblast-neonatal) cells were imaged by a microscope as in Example 3, and the result thereof is shown in FIG. 3A(i) to FIG. 3A(xx). However, the HDF-N cells were inoculated at a concentration of 1.0×10^4 cells/well into a 96-well plate.

HaCaT cells [4] = test: Dependence of cell penetration on ATP (flow cytometry); conditions: pre-treated with 2-DG and NaN3
Procedure: as §1
A test was conducted in the same conditions as those in Example 7 except that the cells were pre-treated with 2-DG (2-deoxyglucose, D6134, sigma) and NaN3 (sodium azide, 71289, sigma) one hour before treatment with FITC-TAT, FITC-Spep001, FITC-Spep002 or FITC-Spep003 to check the dependence of endocytosis on ATP. Then, the FITC fluorescence intensities of peptides penetrating into living cells were measured by flow cytometry as in Example 5, and the result thereof is shown in FIG. 7.

O=C1OC2(c3ccc(O)cc3Oc3cc(O)ccc32)c2ccc(N=C=S)cc21 [FITC, Fluorescein-5-Isothiocyanate, reference compound]
cell penetration rate (FITC-positive cell count) (HaCaT cells [1]): 0.4%

CCCCCCCCCCCCCCCC(=O)N[C@@H](CCCCN)C(=O)N[C@H](C(=O)N[C@H](C(=O)N[C@@H](CCCCN)C(=O)N[C@@H](CO)C(=O)O)[C@@H](C)O)[C@@H](C)O [Palmitoyl-KTTKS, Pal-KTTKS] (Palmitoyl-KTTKS-OH)
change in the appearance of the cells (microscope) (HDF-N cells): appearance of the cells treated with Pal-KTTKS was changed
Cell viability(%) (HDF-N cells; human, 24 h, 12.5 μM): 109.22%

N=C(N)NCCC[C@H](NC(=O)[C@H](CCCNC(=N)N)NC(=O)[C@H](CCCNC(=N)N)NC(=O)[C@H](CCC(N)=O)NC(=O)[C@H](CCCNC(=N)N)NC(=O)[C@H](CCCNC(=N)N)NC(=O)[C@H](CCCCN)NC(=O)[C@H](CCCCN)NC(=O)[C@H](CCCNC(=N)N)NC(=O)CNC(=O)[C@@H](N)Cc1ccc(O)cc1)C(=O)O [TAT, YGRKRRQRRR, reference compound]
viability at 24 h, 25 µM ([2]; 25 μM peptide): 102 ± 5.09%
viability at 24 h, 50 µM ([2]; 50 μM peptide): 106.3 ± 1.05%
viability at 24 h, 100 µM ([2]; 100 μM peptide): 106 ± 2.94%
viability at 24 h, 200 µM ([2]; 200 μM peptide): 102 ± 2.15%
viability at 24 h, 25 µM ([3]; 25 μM peptide): 106 ± 3.38%
viability at 24 h, 50 µM ([3]; 50 μM peptide): 94.9 ± 4.22%
viability at 24 h, 100 µM ([3]; 100 μM peptide): 103 ± 3.02%
viability at 24 h, 200 µM ([3]; 200 μM peptide): 96.7 ± 5.03%

FITC-Ahx-KRRWRKIPKR ({FITC-Ahx}-KRRWRKIPKR) [FITC-Spep002, Spep002 labelled with FITC at the N-terminal amine group]
FITC fluorescence intensity under ATP deficiency (HaCaT cells [4]): decreased
cell penetration rate (FITC-positive cell count) (HaCaT cells [1]): 6.3%
cell penetration rate based on TAT-FITC with a cell penetration rate of 100% (HaCaT cells [1]): 23.3%

FITC-Ahx-RKRWLRKPRP ({FITC-Ahx}-RKRWLRKPRP) [FITC-Spep003, Spep003 labelled with FITC at the N-terminal amine group]
FITC fluorescence intensity under ATP deficiency (HaCaT cells [4]): decreased
cell penetration rate (FITC-positive cell count) (HaCaT cells [1]): 7.8%
cell penetration rate based on TAT-FITC with a cell penetration rate of 100% (HaCaT cells [1]): 28.8%
